Measurements reported in patent US20100184818A1, “PHOTOSENSITIZERS FOR TARGETED PHOTODYNAMIC THERAPY” (THE GENERAL HOSPITAL CORPORATION, priority 2007, published 2010).

What was measured:
[1] = Octanol-water distribution coefficient; type: physicochemical; settings: 1-octanol / DI water, absorbance at 330 nm
Procedure: Each compound was dissolved in a minimum amount of DMSO: CI1 (0.9 mg in 200 μl), CI2 (5.3 mg in 200 μl), CI3 (5.4 mg in 200 μl). Ten ml of DI water and 10 ml of 1-octanol were added in each compound and vigorously shaken for 2 min. and the vials of the compounds were settled down overnight. The phases were separated and UV-spectra of each phase were analyzed. Distribution coefficient of each compound was determined using absorbance of aqueous phases and organic phases at 330 nm.

J774 cells = test: Intracellular reactive oxygen species, H2DCFDA probe fluorescence microscopy; type: cell-based, murine; settings: 5 μM BF4 for 24 h, then probe, 5 J/cm2 405 nm laser, compared with probe alone
Procedure: J774 cells were incubated with 5 μM BF4 for 24 h and on the next day 5 μg/ml of 5- (and -6)-chloromethyl-2′-7′-dichlorodihydrofluoresceine diacetate, (CMH2DCFDA, Molecular Probes, Invitrogen) in complete medium was added and incubated for 30 min at 37° C., then cells were washed with PBS and 5 J/cm2 of 405 nm laser light (Nichia Corp, Detroit, Mich.) was delivered. Five to 10 min later a Leica DMR confocal laser fluorescence microscope (Leica Mikroskopie and Systeme GmbH, Wetzler, Germany) with excitation by a 488 nm argon laser and emission with a 530 nm+/−10 nm bandpass filter, and a 63×1.20 water immersion lens was used to image the cells at a resolution of 1024×1024 pixels. Images were acquired using TCS NT software (Version 1.6.551, Leica Lasertechnik, Heidelberg, Germany).

[2] = Singlet oxygen 1270-nm luminescence and quantum yield; type: physicochemical; settings: for Singlet oxygen luminescence decay curve in organic solvent: CH3OD, 449 nm excitation; for Singlet oxygen decay curve when solvent changed to aqueous buffer: deuterated PBS versus CH3OD
From the text: The sample in a 0.25 mm quartz cell was illuminated within the resonant cavity as described above. Singlet oxygen phosphorescence at 1270 nm was monitored by a nitrogen-cooled germanium detector (Model EO-817, North Coast Scientific Corp, Santa Rosa, Calif.). Photoexcitation of the sample studied was induced by a 5 ns 355 nm laser pulse from a Q-switched Nd:YAG laser (Continuum Surelite II, Santa Clara, Calif.) equipped with an optical parametric oscillator (Opotek, Carlsbad, Calif.). Sample in deuterated PBS (pD ˜6.9) or in deuterated methanol (CH3OD) was excited with 449 nm wavelength.

CT26 cells = test: PDT phototoxicity, MTT assay; type: cell-based, murine; settings: 2 μM, 80 J/cm2 of light
Procedure: When the cells reached 80% confluence, they were washed with PBS and harvested with 2 mL of 0.25% trypsin-EDTA solution (Sigma). Cells were then centrifuged and counted in trypan blue to ensure viability and plated at density of 5000/well in flat-bottom 96 well plates (Fisher Sci, Pittsburgh, Pa.). Cells were allowed 24 h to attach.
On the following day dilutions of the fullerenes were prepared in complete RPMI medium and added to the cells at […] for 24 h incubation as described. Prior to illumination the fullerene solution was removed and fresh complete medium was replaced and the illumination (150 mW/cm2 white light, 1-80 J/cm2) was performed. The light spot covered 9 wells which were considered as one experimental group. All wells in a group were illuminated at the same time. […]
Following PDT treatment the cells were returned to the incubator overnight and the phototoxicity was measured using a 4 h MTT assay read at 560 nm using a microplate spectrophotometer (Spectra Max 340 PC, Molecular Devices, Sunnyvale, Calif.). […]
Briefly cells were treated with PDT sufficient to kill 80% of cells (5 J/cm2 for J774, 20 J/cm2 for LLC and 80 J/cm2 for CT26). […] Samples were incubated in the dark for 1 h at 37° C. and fluorescence was measured (excitation 400 nm, emission 505 nm). The protein per sample was measured with bicinchoninic acid protein assay.

Structure (SMILES)	LogKow [1]	Octanol-water partition constant Kow [1]	Fluorescence of intracellular ROS probe after illumination (J774 cells)	Singlet oxygen luminescence decay curve in organic solvent [2]	Singlet oxygen decay curve when solvent changed to aqueous buffer [2]	Lethal dose of PDT (share of cells killed) (CT26 cells)	Singlet oxygen quantum yield in O2 saturated D2O, higher than that found in air ([2]; O2 saturated D2O versus air saturated)	Singlet oxygen luminescence in aqueous buffer saturated with nitrogen ([2]; nitrogen saturated aqueous buffer)
O=C(NC(CO)CO)C1(C(=O)NC(CO)CO)C2c3c4c5c6c3c3c(c7ccc8c9ccc%10c%11ccc%12c%13c(c%14c6c6c3c7c8c3c9c%10c(c%13%11)c%14c36)C5C%12C=C4)C21 (stereo not drawn) [NI1]	−1.61	0.025	–	–	–	–	–	–
O=C(NC(CO)CO)C1(C(=O)NC(CO)CO)c2c1c1c3ccc4c5c6c7c(c8c9c7c7c%10c%11c%12c(ccc%13c2c2c1c1c3c4c6c7c1c%10c2c%12%13)C(C=C8)C9%11)C1C5C1(C(=O)NC(CO)CO)C(=O)NC(CO)CO (stereo not drawn) [NI2]	−1.49	0.032	–	–	–	–	–	–
C[N+]1(C)CC2c3c4c5c6c3c3c(c7ccc8c9ccc%10c%11c%12c%13c%14c(c6c6c3c7c8c(c9c%10%13)c%146)=C3C5C(C=C4)C(C=C%11)C3%12)C2C1.[I-] (stereo not drawn) [CI1]	2.15	140.80	large increase in fluorescence	very similar luminescence decay curves	almost disappeared	80%	–	–
Cc1cc2nc3c(=O)[nH]c(=O)nc-3n(C[C@H](O)[C@H](O)[C@H](O)CO)c2cc1C [riboflavin, Riboflavin, reference compound]	–	–	–	somewhat larger	remained almost unchanged	–	–	–
C[N+]1(C)Cc2c(c3c4ccc5c6c7c8c9c%10c%11c%12c%13c(c%14c%12c%12c(c2c2c%12c%11c9c(c4c58)c32)C2C[N+](C)(C)CC%142)C=CC2C%13C=%10C7C2C=C6)C1.[I-].[I-] (stereo not drawn) [CI2]	0.11	1.28	–	–	–	–	–	–
C[N+]1(C)Cc2c3c4c5c6c7c8c9c(c%10c8c8c(c%11c%12c(c%13c%14ccc%15c(c2C1)c4c1c%15c%14c2c%13c%11c8c7c2c61)C[N+](C)(C)C%12)C1C[N+](C)(C)CC%101)C=CC3C95.[I-].[I-].[I-] (stereo not drawn) [CI3]	−0.43	0.37	–	very similar luminescence decay curves	remained almost unchanged	60%	about 50%	luminescence disappeared
